Read-outs that look alike come from different tables or passages of the source.
Tested on: HCV Replicon IB
Test: HCV replicon assay in Huh-7 cells, genotype 1b (Rluc luciferase readout)
Format: cell-based, hepatitis C virus
Conditions: for EC50: read-out: EC50_HCV1B_; for inhibition at 10 µM: 72 h, 1b-Rluc replicon, read-out: Inhibition @ 10 uM in 1b-Rluc
[1] = Hepatitis C virus, Huh-7, 72 h, HCV1B replicon, Huh-7 cells, 3 days
[2] = Hepatitis C virus, Huh-7 cells, 3 days

Compound `CO[C@@H]1CNC(CNc2nnc(-c3cc(C)c4cc(C5CC5)cc(C(F)(F)F)c4n3)s2)C1` (stereo partly shown) [Compound 311] has an EC50 [1] of 1140 nM.

Compound `Cc1cc(C(=O)NCCNc2ccccn2)nc2c(C(F)(F)F)cc(C3CC3)cc12` [Compound 129] has an inhibition at 10 µM [2] of 94.9%.

For `Cc1cc(-c2nnc(NC3CC(C)(OCS(C)(=O)=O)C3)o2)nc2c(C(C)(C)C)cc(OCC(F)(F)F)cc12` (stereo not shown) [Compound 495], the EC50 [1] was 38.4 nM.

With `Cc1cc(C(=O)NC[C@H]2CCCO2)nc2c(C(F)(F)F)cc(C3CC3)cc12` [Compound 92] the inhibition at 10 µM [2] was 100%.

Work on `Cc1cc(C(=O)NCCCN2CCOCC2)nc2c(C(F)(F)F)cc(C3CC3)cc12` [Compound 122] yielded an inhibition at 10 µM [2] of 97.2%.

For `COCCNC(=O)c1cc(C)c2cc(C3CC3)cc(C(F)(F)F)c2n1` [Compound 119], the inhibition at 10 µM [2] was 99.5%.

`Cc1cc(-c2nnc(N[C@H]3CC[C@H](O)CC3)o2)nc2c(C(C)(C)C)cc(OCC(F)(F)F)cc12` [Compound 493] was tested, and the EC50 [1] was 8.74 nM.

Work on `Cc1cc(C(=O)NC/C=C/c2ccccc2)nc2c(C(F)(F)F)cc(-c3ccccc3)cc12` [Compound 170] yielded an inhibition at 10 µM [2] of 66.4%.

`CO[C@H]1CN[C@H](CNC(=O)c2cc(N)c3cc(C4CC4)cc(C(C)(C)C)c3n2)C1` [Compound 323] gave an EC50 [1] of 7 nM.

Work on `Cc1cc(-c2nnc(NCC3OC[C@H](C)O3)o2)nc2c(C(C)(C)C)cc(C3CC3)cc12` (stereo partly shown) [Compound 412] yielded an EC50 [1] of 36.2 nM.

In the case of `Cc1cc(-c2nnc(N[C@H]3CCOC3)o2)nc2c(C(C)(C)C)cc(OCC(F)(F)F)cc12` [Compound 451], the EC50 [1] is reported as 2.45 nM.

For `Cc1cc(-c2nnc(NCCS(C)(=O)=O)o2)nc2c(C(C)(C)C)cc(C3CC3)cc12` [Compound 285], the inhibition at 10 µM [2] was 99.6%.

Work on `Cc1cc(C(=O)NCC2CCCCO2)nc2c(C(F)(F)F)cc(C3CC3)cc12` (stereo not shown) [Compound 81] yielded an inhibition at 10 µM [2] of 100%.

Compound `CNCCCNC(=O)c1cc(C)c2cc(C3CC3)cc(C(F)(F)F)c2n1` [Compound 123] has an inhibition at 10 µM [2] of 96.7%.

`CC(C)(C)c1cc(C2CC2)cc2c(N)cc(-c3nnc(Nc4cccc(S(N)(=O)=O)c4)o3)nc12` [Compound 357] gave an EC50 [1] of 356 nM.

With `CC(C)(C)c1cc(C2CC2)cc2c(N)cc(-c3nnc(NCC4CCCCO4)o3)nc12` (stereo not shown) [Compound 354] the EC50 [1] was 15.3 nM.

Compound `CC(C)(C)c1cc(C2CC2)cc2c(N)cc(C(=O)NCc3ncccn3)nc12` [Compound 319] has an EC50 [1] of 0.81 nM.

`Cc1cc(-c2nnc(NC[C@@H]3CCCO3)o2)nc2c(C(C)(C)C)cc(C3CC3)cc12` [Compound 398] showed an EC50 [1] of 3.69 nM.

For `Cc1cc(-c2nnc(NC3CNCC3O)o2)nc2c(C(C)(C)C)cc(C3CC3)cc12` (stereo not shown) [Compound 396], the EC50 [1] was 1110 nM.

With `Cc1cc(-c2nnc(NCC3(C)OCCO3)o2)nc2c(C(C)(C)C)cc(OCC(F)(F)F)cc12` [Compound 454] the EC50 [1] was 2.27 nM.

In the case of `Cc1cc(C(=O)NCc2ncccn2)nc2c(OC(F)F)cc(OC(F)F)cc12` [Compound 447], the EC50 [1] is reported as 37.5 nM.

`Cc1cc(C(=O)NCc2ccc(C#N)cn2)nc2c(C(F)(F)F)cc(C3CC3)cc12` [Compound 112] gave an inhibition at 10 µM [2] of 99.7%.

In the case of `Cc1cc(C(=O)NC[C@H]2CC(F)(F)CN2)nc2c(C(F)(F)F)cc(OC(F)F)cc12` [Compound 190], the inhibition at 10 µM [2] is reported as 94.7%.

`O=C(NCc1ccccn1)c1cc(C2CC2)c2cc(C3CC3)cc(C(F)(F)F)c2n1` [Compound 214] was tested, and the inhibition at 10 µM [2] was 92.6%.

`CC(C)(C)c1cc(C2CC2)cc2c(NC(=O)CN)cc(-c3nnc(NC4CCCC4)o3)nc12` [Compound 360] showed an EC50 (Hepatitis C virus, Huh-7, 72 h) of 44.1 nM.

`Cc1cc(C(F)(F)F)c2nc(C(=O)NCc3ccccn3)cc(C)c2c1` [Compound 143] gave an inhibition at 10 µM [2] of 93.7%.

With `Cc1cc(-c2nnc(NCC3OCCO3)s2)nc2c(C(F)(F)F)cc(C3CC3)cc12` [Compound 297] the inhibition at 10 µM [2] was 100%.

`Cc1cc(C(=O)NCc2ccccn2)nc2c(C(F)(F)F)cc(C3CC3)cc12` [Compound 79] was tested, and the inhibition at 10 µM [2] was 100%.

`Cc1cc(-c2nnc(N[C@H]3C[C@](O)(CO)C3)o2)nc2c(C(C)(C)C)cc(OCC(F)(F)F)cc12` [Compound 499] gave an EC50 [1] of 16.8 nM.

Compound `CCOCCOCCOCCCNc1nnc(-c2cc(C)c3cc(C4CC4)cc(C(F)(F)F)c3n2)o1` [Compound 253] has an inhibition at 10 µM [2] of 80%.

For `CCCCOc1cc(C(F)(F)F)c2nc(C(=O)NCc3ccccn3)cc(C)c2c1` [Compound 183], the inhibition at 10 µM [2] was 88.8%.

Compound `Cc1cc(-c2nnc(NCC3COC(C)(C)O3)o2)nc2c(C(C)(C)C)cc(C3CC3)cc12` (stereo not shown) [Compound 415] has an EC50 [1] of 85 nM.

`Cc1cc(C(=O)NC[C@@H]2CC3(CCN2)OCCO3)nc2c(C(C)(C)C)cc(C3CC3)cc12` [Compound 428] was tested, and the EC50 [1] was 834 nM.

`Cc1cc(-c2nnc(NCCO)s2)nc2c(C(F)(F)F)cc(C3CC3)cc12` [Compound 308] was tested, and the EC50 [1] was 66 nM.

`Cc1cc(C(=O)NCC2CCCCN2C(=O)OC(C)(C)C)nc2c(C(F)(F)F)cc(C3CC3)cc12` (stereo not shown) [Compound 107] showed an inhibition at 10 µM [2] of 94.5%.

Compound `Cc1cc(-c2nnc(NCC3OCCO3)o2)nc2c(C3(C)SCCS3)cc(C3CC3)cc12` [Compound 544] has an EC50 [1] of 46.7 nM.

For `O=C(NCC1COCCN1)c1cc(C(F)F)c2cc(C3CC3)cc(C(F)(F)F)c2n1` (stereo not shown) [Compound 213], the inhibition at 10 µM [2] was 88.7%.

Work on `Cc1cc(-c2nnc(N[C@H]3C[C@@](C)(O)C3)o2)nc2c(C(C)(C)C)cc(C3CC3)cc12` [Compound 423] yielded an EC50 [1] of 1.35 nM.

`CC(=O)c1cc(C(F)(F)F)c2nc(C(=O)NCc3ccccn3)cc(C)c2c1` [Compound 160] gave an inhibition at 10 µM [2] of 93.5%.

`Cc1cc(-c2nnc(N[C@H]3C[C@](O)(CF)C3)o2)nc2c(C(C)(C)C)cc(OCCF)cc12` [Compound 529] gave an EC50 [1] of 1.37 nM.

`Cc1cc(-c2nnc(N[C@H]3C[C@@H](O)C3)s2)nc2c(C(C)(C)C)cc(OCC(F)(F)F)cc12` [Compound 518] showed an EC50 [1] of 51.3 nM.

For `Cc1cc(-c2nnc(NC3CC(O)C3)o2)nc2c(C(C)(C)C)cc(C3CC3)cc12` (stereo not shown) [Compound 420], the EC50 [1] was 3.1 nM.

`Cc1cc(-c2nnc(NCC3OCCO3)o2)nc2c(OC(C)(C)C)cc(C3CC3)cc12` [Compound 548] showed an EC50 [1] of 37.1 nM.

`Cc1cc(-c2nnc(N)s2)nc2c(C(F)(F)F)cc(C3CC3)cc12` [Compound 305] showed an inhibition at 10 µM [2] of 96.6%.

With `Cc1cc(-c2nnc(NCC3(C#N)CC3)o2)nc2c(C(F)(F)F)cc(C3CC3)cc12` [Compound 268] the inhibition at 10 µM [2] was 99.4%.

Compound `O=C(NCc1ccccn1)c1cc(O)c2cc(OC(F)(F)F)cc(-c3cccc4[nH]ncc34)c2n1` [Compound 239] has an inhibition at 10 µM [2] of 49.3%.

`Cc1cc(-c2nnc(NCCCCO)o2)nc2c(C(C)(C)C)cc(C3CC3)cc12` [Compound 284] showed an inhibition at 10 µM [2] of 99.9%.

Work on `CC(C)(C)c1cc(C2CC2)cc2c(N)cc(-c3nnc(NC[C@@H]4CCCO4)o3)nc12` [Compound 359] yielded an EC50 (HCV1B replicon, Huh-7 cells, 3 days) of 1.21 nM.

`Cc1cc(C(=O)NCCC#N)nc2c(C(F)(F)F)cc(-c3ccccc3)cc12` [Compound 104] gave an inhibition at 10 µM [2] of 70.3%.

With `C#Cc1cc(OC(F)(F)F)cc2c(O)cc(C(=O)NCc3ccccn3)nc12` [Compound 237] the inhibition at 10 µM [2] was 21.7%.

For `Nc1cc(C(=O)NCC2COCCN2)nc2c(C(F)(F)F)cc(C3CC3)cc12` (stereo not shown) [Compound 218], the inhibition at 10 µM [2] was 99.9%.

With `CCC(C)(O)c1cc(C2CC2)cc2c(C)cc(-c3nnc(NCC4OCCO4)o3)nc12` (stereo not shown) [Compound 543] the EC50 [1] was 155 nM.

`Cc1cc(-c2nnc(Nc3cn[nH]c3)o2)nc2c(C(C)(C)C)cc(C3CC3)cc12` [Compound 400] showed an EC50 [1] of 75.5 nM.

`Cc1cc(C(=O)NCC2CCN2)nc2c(C(F)(F)F)cc(C3CC3)cc12` (stereo not shown) [Compound 125] gave an inhibition at 10 µM [2] of 95.2%.

With `Cc1cc(-c2nnc(NC3CCCC3)o2)nc2c(C(F)(F)F)cc(C3CC3)cc12` [Compound 390] the EC50 [1] was 1.75 nM.
